Measurements from PMC7503767, “Alkoxyamines Designed as Potential Drugs against Plasmodium and Schistosoma Parasites” (Molecules, 2020).
pIC50: −log10 of the molar value. Like-named read-outs stand apart in the source and are kept apart here.

Legend:
[1] = system: P. falciparum chloroquine-resistant strain FcB1-Columbia; experiment: Antiplasmodial screen at 10 µM and chemosensitivity assay (SYBR Green I), FcB1-Columbia; format: cell-based, Plasmodium falciparum
Adult S. mansoni = experiment: In vitro antischistosomal activity on adult worms; format: cell-based, Schistosoma mansoni; conditions: for Mean (±SD) survival time – Adult S. mansoni / Time for the death of 100% worms: 100 µg/mL; for Mean (±SD) survival time – Adult S. mansoni: observation up to 8 h (Table S1); for Time for the death of 100% worms / S. mansoni Mean Survival Time: adult S. mansoni, observation up to 8 h; for S. mansoni Mean Survival Time: single dose 100 µg/mL
Source text: The NMRI strain of Schistosoma mansoni was used for the experimentations. The parasite was maintained on an albino variety of Biomphalaria glabrata from Brazil (intermediate host) and in Golden Hamsters, Mesocricetus auratus (Janvier Labs, Le Genest-Saint-Isle, France). Detailed methods, for mollusk and hamster infections and for parasite recovery, were previously described.
Adult worms were recovered between 42 and 47 days after infection by hepatic perfusion technique. Twenty to fifty adult worms were disposed in 12-well Falcon® plate containing 2 mL of RPMI 1640 (supplemented with L-glutamine and Hepes 25 mM) and stored in an incubator chamber (37 °C; 5% CO2). Drug preparation started with dissolution of the drug in DMSO to give a 100 mg/mL stock solution. The dilution was complemented with Tween 80 and RPMI in order to obtain the following final ratio dilution: RPMI 1640/Tween 80/DMSO, 1000/0.95/3.8, v/v/v. The drug solution was added to Falcon plates that contained adult worms. The S. mansoni cultures were then incubated with each drug at a final concentration of 100 µg/mL. Positive control was carried out with a solution of praziquantel (Merck KGaA, Darmstadt, Germany) at a concentration of 100 µg/mL. Negative control was carried out with the same RPMI 1640/Tween 80/DMSO solution, but without any drug. Each test was performed in duplicate. Every hour, moving worms were counted in order to define the percentage of survivors. Parasites showing no body contractions during a 30 s observation were considered as dead. Observations were extended to 8 h. Mean survival times (± standard deviation) were calculated for each drug using Kaplan–Meier survival analyses.

[2] = Homolysis of the NO–C bond measured by EPR
Description: Homolysis rate constants kd’ were measured by EPR and estimated using Equation (1) as reported many times in the literature. Further, Ea and kd were estimated using Equation (2). (1) ln([nitroxide]∞−[nitroxide]t/[nitroxide]∞)=−kd·t (2) Ea=−RT ln([…] kd′ )

Vero cells = experiment: Cytotoxicity assay (MTT); conditions: read-out: Cytotoxicity Mean IC50, Vero cell lines, 48 h, MTT
Description: Vero cells were cultured in MEM (Dutscher, Brumath, France) supplemented with 10% fetal bovine serum, 1× non-essential amino acids, 100 U/mL, 100 µg/mL penicillin/streptomycin, and 2 mM L-glutamine at 37 °C in a humidified 5% CO2 atmosphere. […] At this time, each well was microscope-examined for detection of possible precipitate formation prior to remove the supernatant by flicking the plate. 100 µL of a 0.5 mg/mL PBS-dissolved MTT tetrazolium (stock solution at 5 mg/mL) was then added to each well [48]. The plates were then incubated for 1 h at 37 °C and 5% CO2 prior to removing the supernatant and adding 100 µL of DMSO. Plates were gently shaken to dissolve formazan crystals resulting from the MTT tetrazolium reduction by living cells and read at 570 nm with BioTek µQuant Microplate Spectrophotometer.

[3] = FcB1-Columbia strain, read-out: IC50 on P. falciparum

SMILES | pIC50 [1, 3] | Mean (±SD) survival time – Adult S. mansoni (Adult S. mansoni) | Time for the death of 100% worms (Adult S. mansoni) | also measured
CCOP(=O)(OCC)C(N(OC(C)c1cc[n+]([O-])cc1)C(C)(C)C)C(C)(C)C (stereo not drawn) [(RR/SS)-1d] | < 5.00 | > 8 h | > 8 h | 
CCOP(=O)(OCC)C(N(OC(C)c1ccc(N)cc1)C(C)(C)C)C(C)(C)C (stereo not drawn) [(RR/SS)-1w] | < 5.00 | 2.1 ± 0.1 h | 3 h | 
CCOP(=O)(OCC)[C@@H](N(O[C@@H](COC(C)=O)c1ccccn1)C(C)(C)C)C(C)(C)C (relative stereo) [(RR/SS)-1j] | < 5.00 | > 8 h | > 8 h | 
CCOP(=O)(OCC)C(N(OC(C)n1ccnc1)C(C)(C)C)C(C)(C)C (stereo not drawn) [(RS/SR)-1o] | 4.60 | 1.1 ± 0.1 h | 2 h | 
CCOP(=O)(OCC)C(N(OC(CNC(=O)C(F)(F)F)c1ccccc1)C(C)(C)C)C(C)(C)C (stereo not drawn) [(RR/SS)-1E] | < 5.00 | 5.0 ± 0.5 h | 6 h | 
CCOP(=O)(OCC)C(N(OC(C)c1cc(-c2ccccc2)cc(-c2ccccc2)c1)C(C)(C)CO)C(C)(C)C (stereo not drawn) [(RR/SS)-2G, Diethyl(1-((1-([1,1′:3′,1′′-terphenyl]-5′-yl)ethoxy)(1-hydroxy-2-methylpropan-2-yl)amino)-2,2-dimethylpropyl)phosphonate] |  |  | 7 h | activation energy Ea ([2]; MeOH/water 2:1 pH = 7.0): 28.94 kcal/mol; re-estimated homolysis rate constant kd at 120 °C ([2]; MeOH/water 2:1 pH = 7.0): 19.5 10^−3 s^−1; homolysis rate constant kd′ ([2]; MeOH/water 2:1 pH = 7.0, 81 °C): 3.3 10^−4s^−1; half-life ([2]; buffer, pH 7, half-lifetime t1/2 at 37 °C, MeOH/water 2:1 pH = 7.0): 295 h; half-life ([2]; half-lifetime t1/2 at 37 °C, t-BuPh): 180 h; activation energy Ea ([2]; t-BuPh): 28.87 kcal/mol; re-estimated homolysis rate constant kd at 120 °C ([2]; t-BuPh): 21.1 10^−3 s^−1; homolysis rate constant kd′ ([2]; t-BuPh, 81 °C): 3.8 10^−4s^−1; pIC50 ([1]; Plasmodium falciparum, FCB1, read-out: IC50 on P. falciparum, FcB1-Columbia strain): < 5.00
CCOP(=O)(OCC)C(N(OC(C)c1ccc(C(=O)O)cc1)C(C)(C)C)C(C)(C)C (stereo not drawn) [(RR/SS)-1y] | < 5.00 | > 8 h | > 8 h | 
CCOP(=O)(OCC)C(N(OC(CO)c1ccccc1)C(C)(C)C)C(C)(C)C (stereo not drawn) [(RS/SR)-1C] | < 5.00 | 1.4 ± 0.2 h | 2 h | 
CCOP(=O)(OCC)C(N(OC(CO)c1ccccn1)C(C)(C)C)C(C)(C)C (stereo not drawn) [(RS/SR)-1i] | < 5.00 | > 8 h | > 8 h | 
CCOP(=O)(OCC)C(N(OC(C)c1ccc([N+](=O)[O-])cc1)C(C)(C)C)C(C)(C)C (stereo not drawn) [(RR/SS)-1v] | < 5.00 | 3.4 ± 0.2 h | 4 h | 
CCOP(=O)(OCC)C(N(OC(C)c1ccccc1)C(C)(C)CO)C(C)(C)C (stereo not drawn) [(RS/SR)-2z] | < 5.00 | > 8 h | > 8 h | 
CCOP(=O)(OCC)C(N(OC(C)c1c[nH]cn1)C(C)(C)C)C(C)(C)C (stereo not drawn) [(RS/SR)-1p] | 4.69 | 1.4 ± 0.3 h | 3 h | 
CCOP(=O)(OCC)C(N(OC(C)n1ccnc1)C(C)(C)C)C(C)(C)C (stereo not drawn) [(RR/SS)-1o] | 4.60 | 2.3 ± 0.2 h | 3 h | 
CCOP(=O)(OCC)[C@@H](N(O[C@H](COC(C)=O)c1ccccn1)C(C)(C)C)C(C)(C)C (relative stereo) [(RS/SR)-1j] | < 5.00 | > 8 h | > 8 h | 
CCOP(=O)(OCC)C(N(OC(C)c1ccc([N+](=O)[O-])cc1)C(C)(C)C)C(C)(C)C (stereo not drawn) [(RS/SR)-1v] | < 5.00 | > 8 h | > 8 h | 
CCOP(=O)(OCC)C(N(OC(C)c1ccc(C(=O)OC)cc1)C(C)(C)C)C(C)(C)C (stereo not drawn) [(RR/SS)-1x] | < 5.00 | > 8 h | > 8 h | 
CCOP(=O)(OCC)C(N(OC(C)c1ccc(C(=O)OC)cc1)C(C)(C)C)C(C)(C)C (stereo not drawn) [(RS/SR)-1x] | < 5.00 | 2.4 ± 0.3 h | 4 h | 
CCOP(=O)(OCC)C(N(OC(C)c1ncc[nH]1)C(C)(C)C)C(C)(C)C (stereo not drawn) [(RR/SS)-1k] | < 5.00 | 1.0 ± 0.05 h | 1 h | S. mansoni Mean Survival Time (Adult S. mansoni): 1.0 ± 0.05 h
CCOP(=O)(OCC)C(N(OC(CN)c1cc[n+]([O-])cc1)C(C)(C)C)C(C)(C)C (stereo not drawn) [(RS/SR)-1e] | < 5.00 | > 8 h | > 8 h | 
CCOP(=O)(OCC)C(N(OC(C)c1ccc(N)cc1)C(C)(C)C)C(C)(C)C (stereo not drawn) [(RS/SR)-1w] | < 5.00 | > 8 h | > 8 h | 
CCOP(=O)(OCC)C(N(OC(CN)c1ccccc1)C(C)(C)C)C(C)(C)C (stereo not drawn) [(RS/SR)-1A] |  | 1.0 ± 0.05 h | 1 h | pIC50 (Vero cells; listed as (RS/SR)-1A): 4.68; S. mansoni Mean Survival Time (Adult S. mansoni): 1.0 ± 0.05 h
CCOP(=O)(OCC)C(N(OC(CN)c1ccccc1)C(C)(C)C)C(C)(C)C (stereo not drawn) [(RR/SS)-1A] | < 5.00 |  |  | pIC50 (Vero cells; listed as (RR/SS)-1A): < 4.00
CCOP(=O)(OCC)C(N(OC(CN)c1ccccn1)C(C)(C)C)C(C)(C)C (stereo not drawn) [(RS/SR)-1g] | < 5.00 | 2.6 ± 0.3 h | 4 h | 
CCOP(=O)(OCC)C(N(OC(CN)c1ccccn1)C(C)(C)C)C(C)(C)C (stereo not drawn) [(RR/SS)-1g] | < 5.00 | 1.9 ± 0.1 h | 2 h | 
CCOP(=O)(OCC)C(N(OC(C)c1c[nH]cn1)C(C)(C)C)C(C)(C)C (stereo not drawn) [(RR/SS)-1p] |  | 1.0 ± 0.05 h | 1 h | pIC50 (Vero cells): < 4.00; S. mansoni Mean Survival Time (Adult S. mansoni): 1.0 ± 0.05 h
